Experiments:
[1] = Toxicity against Artemia salina; format: organism-based; settings: in vivo
Bombyx mori = test: Inhibition of leucine uptake in Bombyx mori larval midgut brush border membrane vesicles at 0.2 uM; format: functional

SMILES: C=C(C)c1cc2c(=O)c3c(O)cc4c(c3oc2c2c1C(O)(C(=O)OC)CC2=O)C=CC(C)(C)O4 (configuration not stated) [ARTOINDONESIANIN C]
- LC50 [1]: > 500 µg/mL
- inhibition (Bombyx mori): 20%

Source: ChEMBL document CHEMBL1155678, “Artoindonesianin C, a new xanthone derivative from Artocarpus teysmanii” (J Nat Prod, 2000)
